Experimental data published in PubChem BioAssay (NCI).
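Where inhibition never reached the appropriate level, the endpoint shown equals the highest concentration tested. Otherwise, values were interpolated linearly from a five-concentration, 48-hour dose response in 96-well plates. TGI denotes the concentration required for complete inhibition of growth.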

Tests used:
Test in all cases: inhibition of tumour cell growth, NCI panel, 48 h
[1] = test system: HCT-15 colon
[2] = test system: HOP-92 NSCLC
[3] = test system: RXF-631 renal
[4] = test system: COLO 205 colon
[5] = test system: SK-MEL-5 melanoma
[6] = test system: NCI-H226 lung
[7] = test system: CAKI-1 renal
[8] = test system: SN12C renal
[9] = test system: SW-620 colon
[10] = test system: SF-268 CNS
[11] = test system: EKVX NSCLC
[12] = test system: MOLT-4 leukemia
[13] = test system: HOP-62 NSCLC
[14] = test system: SNB-19 CNS
[15] = test system: IGROV1 ovarian
[16] = test system: NCI-H460 lung
[17] = test system: OVCAR-5 ovarian
[18] = test system: CCRF-CEM leukemia
[19] = test system: U251 CNS
[20] = test system: SF-539 CNS
[21] = test system: HCT-116 colon
[22] = test system: A549 NSCLC
[23] = test system: 786-0 renal
[24] = test system: XF 498 CNS
[25] = test system: OVCAR-3 ovarian
[26] = test system: NCI-H23 lung
[27] = test system: UACC-62 melanoma
[28] = test system: KM20L2 colon
[29] = test system: HL-60(TB) leukemia
[30] = test system: RXF 393 renal
[31] = test system: ACHN renal
[32] = test system: SNB-75 CNS
[33] = test system: UO-31 renal
[34] = test system: NCI-H522 lung
[35] = test system: DLD-1 colon
[36] = test system: SF-295 CNS
[37] = test system: MALME-3M melanoma
[38] = test system: LOX IMVI melanoma
[39] = test system: K-562 leukemia
[40] = test system: TK-10 renal
[41] = test system: SR leukemia
[42] = test system: SK-OV-3 ovarian
[43] = test system: M14 melanoma
[44] = test system: M19-MEL melanoma
[45] = test system: OVCAR-8 ovarian
[46] = test system: SNB-78 CNS
[47] = test system: LXFL 529 NSCLC
[48] = test system: HT29 colon
[49] = test system: DMS 273 small cell lung
[50] = test system: OVCAR-4 ovarian
[51] = test system: SK-MEL-2 melanoma
[52] = test system: HCC-2998 colon
[53] = test system: UACC-257 melanoma
[54] = test system: RPMI-8226 leukemia
[55] = test system: HOP-18 NSCLC
[56] = test system: SK-MEL-28 melanoma
[57] = test system: KM12 colon

O=C(O/N=C1/CCCC/C1=C\c1ccccc1)c1ccc(Cl)c(Cl)c1
TGI [1]: > 100 µM | TGI [2]: > 100 µM | TGI [3]: 31.8 µM | TGI [4]: 81.5 µM | TGI [5]: > 100 µM | TGI [6]: > 100 µM | TGI [7]: 67.2 µM | TGI [8]: > 100 µM | TGI [9]: 35.8 µM | TGI [10]: 24.6 µM | TGI [11]: > 100 µM | TGI [12]: 60.9 µM | TGI [13]: > 100 µM | TGI [14]: > 100 µM | TGI [15]: 52.5 µM | TGI [16]: > 100 µM | TGI [17]: > 100 µM | TGI [18]: 53.2 µM | TGI [19]: 32.9 µM | TGI [20]: 60 µM | TGI [21]: 26.4 µM | TGI [22]: 32.3 µM | TGI [23]: 96.2 µM | TGI [24]: > 100 µM | TGI [25]: 41 µM | TGI [26]: 36.7 µM | TGI [27]: 45.6 µM | TGI [28]: > 100 µM | TGI [29]: 34.1 µM | TGI [30]: 60.2 µM | TGI [31]: 30.3 µM | TGI [32]: 61.6 µM | TGI [33]: 31.8 µM | TGI [34]: 33.1 µM | TGI [35]: > 100 µM | TGI [36]: > 100 µM | TGI [37]: > 100 µM | TGI [38]: 42.8 µM | TGI [39]: 34.5 µM | TGI [40]: 58.8 µM | TGI [41]: > 100 µM | TGI [42]: > 100 µM | TGI [43]: > 100 µM | TGI [44]: > 100 µM | TGI [45]: 32.5 µM | TGI [46]: 39.5 µM | TGI [47]: 27.9 µM | TGI [48]: 48.9 µM | TGI [49]: 53.8 µM | TGI [50]: 54.4 µM | TGI [51]: > 100 µM | TGI [52]: > 100 µM | TGI [53]: > 100 µM | TGI [54]: > 100 µM | TGI [55]: > 100 µM | TGI [56]: 68.4 µM | TGI [57]: > 100 µM

CCOc1ccccc1NC(=O)CC1Sc2ccccc2NC1=O (stereo not drawn)
TGI [1]: > 100 µM | TGI [2]: 76.8 µM | TGI [3]: > 100 µM | TGI [4]: > 100 µM | TGI [5]: 86.6 µM | TGI [6]: > 100 µM | TGI [7]: > 100 µM | TGI [8]: > 100 µM | TGI [9]: > 100 µM | TGI [10]: > 100 µM | TGI [11]: > 100 µM | TGI [12]: > 100 µM | TGI [13]: > 100 µM | TGI [14]: > 100 µM | TGI [15]: > 100 µM | TGI [16]: > 100 µM | TGI [17]: > 100 µM | TGI [18]: > 100 µM | TGI [19]: > 100 µM | TGI [20]: > 100 µM | TGI [21]: > 100 µM | TGI [22]: > 100 µM | TGI [23]: > 100 µM | TGI [24]: > 100 µM | TGI [25]: > 100 µM | TGI [26]: > 100 µM | TGI [27]: > 100 µM | TGI [28]: > 100 µM | TGI [29]: 67.9 µM | TGI [30]: > 100 µM | TGI [31]: > 100 µM | TGI [32]: > 100 µM | TGI [33]: > 100 µM | TGI [34]: 73.7 µM | TGI [35]: > 100 µM | TGI [36]: > 100 µM | TGI [37]: > 100 µM | TGI [38]: > 100 µM | TGI [39]: > 100 µM | TGI [40]: > 100 µM | TGI [41]: 75.7 µM | TGI [42]: > 100 µM | TGI [43]: > 100 µM | TGI [44]: > 100 µM | TGI [45]: > 100 µM | TGI [46]: > 100 µM | TGI [47]: > 100 µM | TGI [48]: > 100 µM | TGI [49]: > 100 µM | TGI [50]: > 100 µM | TGI [51]: > 100 µM | TGI [52]: > 100 µM | TGI [53]: > 100 µM | TGI [55]: > 100 µM | TGI [56]: > 100 µM | TGI [57]: > 100 µM
